Counter-ions that a name gives are not always drawn. Like-named read-outs stand apart in the source and are kept apart here.
Key:
[1] = mean ± SD; for AUC0-10 hr: baseline-corrected
Experimental: Subjects participated in a randomized, double-blind, single-dose, 4-way crossover study with a minimum of 1 week elapsing between trials. The 4 treatment groups were:
Subjects fasted overnight except for water. […] After 1 hour they were administered the study medication. Additional blood specimens were obtained immediately prior to the study medication and at 0.5, 1, 1.5, 2, 3, 4, 5, 6, 8, and 10 hours after taking the study medication. Subjects received a standardized lunch after the 6-hour blood draw. All blood specimens were drawn in duplicate (for plasma and whole blood assays) in 3 mL lavender-top vacutainers® containing K2EDTA. They were immediately placed in an ice bath and protected from the light. One vacutainer® of each pair was centrifuged at 3000 RPM for 20 min at 4°C to separate the plasma. The plasma sample and whole blood sample were then frozen at -70°C.
Thiamine tablets each containing 100 mg of thiamine hydrochloride were used (Amneal Pharmaceuticals). These were placed intact into opaque capsules. Identical capsules containing sucrose tablets were used as placebo such that the same number of capsules were used for each trial.
Quest Diagnostics analyzed all specimens for total thiamine using HPLC [4]. At Quest Diagnostics, plasma was deproteinized and then incubated with acid phosphatase to convert thiamine phosphate esters to free thiamine. The free thiamine was then oxidized to thiochrome by the addition of alkaline potassium ferricyanide. Depending on the age of the column and the temperature of the room, thiochrome retention time varied from 2.5 to 3.0 min. The mixture was injected to a Supelco (Bellefonte, PA, USA) high-performance liquid chromatographic column (7.5 cm^3 4.6 mm, particle size […]) connected to a high-performance liquid chromatographic system using a Hitachi (Pleasant, CA, USA) pump, autosampler, and fluorescent detector (excitation wavelength 365 nm, emission wavelength 440 nm). The mobile phase was 75 mmol/L of potassium phosphate at pH 7.5 with 25% methanol. The flow rate was set at 1.0 mL/min. Through this process, the thiochrome was then separated from other interfering substances and then measured fluorometrically. The amount of total thiamine in an unknown sample is proportional to the amount of thiochrome formed. The limit of quantification is 7 nmol/L. The assay range is 7 to 450 nmol/L. Samples with values above this range were diluted. The coefficient of variation for both the plasma and whole blood thiamine assays was calculated from the data collected in this study.
The thiamine levels were corrected by subtracting the baseline value. The baseline value was calculated as the average of the -1-hour and 0-hour values. Net systemic exposure to thiamine in each subject in each trial was quantitated using the area under the whole blood or plasma concentration curve from time zero through 10 hours after dosage (AUC0-10 hr). This was calculated using the cubic splines method. The overall effect of treatment condition (thiamine dose) on AUC0-10 hr in blood and plasma was tested using analysis of variance (ANOVA) for repeated measures. This was followed by the Student-Newman-Keuls procedure, nonparametric form, for evaluating all pairwise comparisons of the mean AUC0-10 hr values for the dosage groups. The peak thiamine concentration (Cmax) and the time to peak thiamine concentration (Tmax) were also calculated. Finally, half-life (t1\2) values were calculated where the terminal phase appeared log-linear.

[2] = single oral doses 100, 500, 1500 mg, healthy subjects; study not designed to detect adverse events
From the text: Subjects participated in a randomized, double-blind, single-dose, 4-way crossover study with a minimum of 1 week elapsing between trials.

[3] = cited from earlier work
[4] = plasma, 100 mg oral single dose
[5] = plasma, 500 mg oral single dose
[6] = plasma, 1500 mg oral single dose
[7] = whole blood, 100 mg oral single dose
[8] = whole blood, 500 mg oral single dose
[9] = whole blood, 1500 mg oral single dose

Cc1ncc(C[n+]2csc(CCO)c2C)c(N)n1 [thiamine hydrochloride]
AUC0-10 hr [1, 4]: 0.177 ± 0.062 µM·h
Cmax [1, 4]: 39 ± 13 nM
AUC0-10 hr [1, 5]: 0.612 ± 0.257 µM·h
Cmax [1, 5]: 113 ± 42 nM
AUC0-10 hr [1, 6]: 2.059 ± 1.415 µM·h
Cmax [1, 6]: 397 ± 250 nM
AUC0-10 hr [1, 7]: 0.214 ± 0.069 µM·h
Cmax [1, 7]: 40 ± 11 nM
AUC0-10 hr [1, 8]: 0.623 ± 0.178 µM·h
Cmax [1, 8]: 95 ± 27 nM
AUC0-10 hr [1, 9]: 2.046 ± 1.222 µM·h
Cmax [1, 9]: 385 ± 188 nM
side effects [2]: no side effects were reported
adverse effects ([3]; 1000 mg oral three times a day for 2 to 12 months, Alzheimer's disease): without any reports of adverse effects
side effects ([3]; titrated up to 8000 mg per day over 1 year, in 2 subjects at 7000 and 7500 mg per day): nausea and indigestion
